Assay results: PubChem BioAssay AID248 (DTP/NCI, 2004)
Where “and” joins values, the source holds several entries; their conditions need not be identical. Equal entries are not always repeated. Inconclusive results and toxic doses are left out. No stated cut-off is given here; in the data, active means T/C of 150% or more; inactive means T/C below 125%.

Tested on: L1210 leukemia ip in BDF1 mice, survival T/C
Assay: NCI In Vivo Anticancer Drug Screen. Data for tumor model L1210 Leukemia (intraperitoneal) in B6D2F1 (BDF1) mice
Conditions: endpoint: mean survival time, higher = longer survival
In short: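 Survival endpoint. Drug-treated group vs vehicle group, expressed as T divided by C. Tumor passaged by transplantation.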

[1] = dose: 100.0 mg/kg/injection, schedule: Q04DX002 (ip), vehicle: saline with Tween-80
[2] = dose: 200.0 mg/kg/injection, schedule: Q04DX002 (ip), vehicle: saline with Tween-80
[3] = dose: 100.0 mg/kg/injection, schedule: Q04DX003 (ip), vehicle: saline
[4] = dose: 200.0 mg/kg/injection, schedule: Q04DX003 (ip), vehicle: saline
[5] = dose: 100.0 mg/kg/injection, schedule: Q01DX009 (ip), vehicle: saline sonified
[6] = dose: 200.0 mg/kg/injection, schedule: Q01DX009 (ip), vehicle: saline sonified
[7] = dose: 400.0 mg/kg/injection, schedule: Q01DX009 (ip), vehicle: saline sonified
[8] = dose: 100.0 mg/kg/injection, schedule: Q04DX003 (ip), vehicle: saline with Tween-80
[9] = dose: 100.0 mg/kg/injection, schedule: Q01DX009 (ip), vehicle: saline with Tween-80
[10] = dose: 100.0 mg/kg/injection, schedule: Q04DX003 (ip), vehicle: Klucel (hydroxypropylcellulose) (HPC)
[11] = dose: 200.0 mg/kg/injection, schedule: Q04DX003 (ip), vehicle: Klucel (hydroxypropylcellulose) (HPC)
[12] = dose: 400.0 mg/kg/injection, schedule: Q04DX003 (ip), vehicle: Klucel (hydroxypropylcellulose) (HPC)
[13] = dose: 100.0 mg/kg/injection, schedule: Q01DX009 (ip), vehicle: Klucel (hydroxypropylcellulose) (HPC)
[14] = dose: 200.0 mg/kg/injection, schedule: Q01DX009 (ip), vehicle: Klucel (hydroxypropylcellulose) (HPC)
[15] = dose: 400.0 mg/kg/injection, schedule: Q01DX009 (ip), vehicle: Klucel (hydroxypropylcellulose) (HPC)

Measured: T/C

C/C(=N/N=C(N)N)C(=O)O
inactive: dose: 15.0 mg/kg/injection, schedule: Q01DX Z (ip), vehicle: carboxymethylcellulose (CMC) 101 % of control | dose: 30.0 mg/kg/injection, schedule: Q01DX Z (ip), vehicle: carboxymethylcellulose (CMC) 97 % of control | dose: 60.0 mg/kg/injection, schedule: Q01DX Z (ip), vehicle: carboxymethylcellulose (CMC) 100 % of control and 101 % of control | dose: 120.0 mg/kg/injection, schedule: Q01DX Z (ip), vehicle: carboxymethylcellulose (CMC) 101 % of control and 103 % of control | dose: 240.0 mg/kg/injection, schedule: Q01DX Z (ip), vehicle: carboxymethylcellulose (CMC) 112 % of control | dose: 480.0 mg/kg/injection, schedule: Q01DX Z (ip), vehicle: carboxymethylcellulose (CMC) 98 % of control

Cc1ccc(N=Cc2cc(Cl)cc(Cl)c2OC(=O)c2ccccc2)cc1C
inactive: [1] 95 % of control | [2] 92 % of control | dose: 400.0 mg/kg/injection, schedule: Q04DX002 (ip), vehicle: saline with Tween-80 88 % of control

O=P(c1ccccc1)(N1CCCC1)N1CCCC1
inactive: [3] 95 % of control | [4] 92 % of control

OCc1ccccc1CO
inactive: dose: 100.0 mg/kg/injection, schedule: Q01DX001 (ip), vehicle: carboxymethylcellulose (CMC) 95 % of control | dose: 200.0 mg/kg/injection, schedule: Q01DX001 (ip), vehicle: carboxymethylcellulose (CMC) 95 % of control | dose: 400.0 mg/kg/injection, schedule: Q01DX001 (ip), vehicle: carboxymethylcellulose (CMC) 98 % of control

Cn1cc(Cl)nc1CO
inactive: [5] 91 % of control | [3] 91 % of control | [6] 102 % of control | [4] 107 % of control | [7] 93 % of control | dose: 400.0 mg/kg/injection, schedule: Q04DX003 (ip), vehicle: saline 102 % of control

CCOC(=O)C(C(C)=O)C(c1cccc(O)c1)C(C(C)=O)C(=O)O (stereo not drawn)
inactive: dose: 25.6 mg/kg/injection, schedule: Q04DX002 (ip), vehicle: saline with Tween-80 95 % of control | dose: 37.5 mg/kg/injection, schedule: Q01DX009 (ip), vehicle: saline with Tween-80 100 % of control | dose: 64.0 mg/kg/injection, schedule: Q04DX002 (ip), vehicle: saline with Tween-80 91 % of control | dose: 75.0 mg/kg/injection, schedule: Q01DX009 (ip), vehicle: saline with Tween-80 91 % of control | [8] 90 % of control | dose: 150.0 mg/kg/injection, schedule: Q01DX009 (ip), vehicle: saline with Tween-80 94 % of control | dose: 160.0 mg/kg/injection, schedule: Q04DX002 (ip), vehicle: saline with Tween-80 87 % of control | dose: 200.0 mg/kg/injection, schedule: Q04DX003 (ip), vehicle: saline with Tween-80 90 % of control

O=C(Nc1ccc(Cl)c(Cl)c1)c1ccco1
inactive: dose: 12.5 mg/kg/injection, schedule: Q01DX009 (ip), vehicle: saline with Tween-80 92 % of control and 93 % of control | dose: 25.0 mg/kg/injection, schedule: Q01DX001 (ip), vehicle: saline with Tween-80 97 % of control | dose: 25.0 mg/kg/injection, schedule: Q04DX002 (ip), vehicle: saline with Tween-80 116 % of control and 91 % of control | dose: 25.0 mg/kg/injection, schedule: Q04DX003 (ip), vehicle: saline with Tween-80 96 % of control | dose: 50.0 mg/kg/injection, schedule: Q01DX001 (ip), vehicle: saline with Tween-80 103 % of control | dose: 50.0 mg/kg/injection, schedule: Q04DX002 (ip), vehicle: saline with Tween-80 116 % of control and 91 % of control | dose: 50.0 mg/kg/injection, schedule: Q04DX003 (ip), vehicle: saline with Tween-80 93 % of control | dose: 100.0 mg/kg/injection, schedule: Q01DX001 (ip), vehicle: saline with Tween-80 109 % of control | [9] 93 % of control | [8] 95 % of control

CC(C)(C)CC(C)(C)c1ccc(OCCOCCOc2ccc([N+](=O)[O-])cc2)cc1
inactive: [5] 94 % of control | [6] 96 % of control | [7] 94 % of control

CCN(CC)C(=O)OCCN1C(=O)C2C3CCC(O3)C2C1=O (stereo not drawn)
inactive: [10] 93 % of control | [11] 92 % of control | [12] 93 % of control

S=P(c1ccccc1)(N1CCCCC1)N1CCCCC1
inactive: [3] 97 % of control | [4] 93 % of control

CCCCCCCCCCCCCCCCCC(=O)OCC(=O)C(OC(=O)CCCCCCCCCCCCCCCCC)C(OC(=O)CCCCCCCCCCCCCCCCC)C(COC(=O)CCCCCCCCCCCCCCCCC)OC(=O)CCCCCCCCCCCCCCCCC (stereo not drawn)
inactive: dose: 100.0 mg/kg/injection, schedule: Q01DX001 (ip), vehicle: other 95 % of control | dose: 200.0 mg/kg/injection, schedule: Q01DX001 (ip), vehicle: other 98 % of control | dose: 400.0 mg/kg/injection, schedule: Q01DX001 (ip), vehicle: other 93 % of control

CC(=O)Nc1ccc(NC(=O)Nc2cc(Cl)ccc2C)cc1
inactive: [13] 91 % of control | [14] 93 % of control | [15] 96 % of control

O=C(O)/C=C/C(=O)NCCc1ccccc1
inactive: [13] 91 % of control | [14] 102 % of control | [15] 96 % of control

Cc1cc(NC(=O)Nc2ccc(Cl)cc2)no1
inactive: dose: 100.0 mg/kg/injection, schedule: Q04DX003 (ip), vehicle: saline sonified 95 % of control | dose: 200.0 mg/kg/injection, schedule: Q04DX003 (ip), vehicle: saline sonified 87 % of control | dose: 400.0 mg/kg/injection, schedule: Q04DX003 (ip), vehicle: saline sonified 87 % of control

C#C[C@]1(O)CC[C@H]2[C@@H]3CCc4cc(O)ccc4[C@H]3CC[C@@]21C
inactive: dose: 62.5 mg/kg/injection, schedule: Q04DX003 (sc), vehicle: steriod suspending solution 96 % of control | dose: 125.0 mg/kg/injection, schedule: Q04DX003 (sc), vehicle: steriod suspending solution 100 % of control | dose: 250.0 mg/kg/injection, schedule: Q04DX003 (sc), vehicle: steriod suspending solution 97 % of control | dose: 500.0 mg/kg/injection, schedule: Q04DX003 (sc), vehicle: steriod suspending solution 99 % of control

COc1ccc(F)cc1CCl
inactive: dose: 100.0 mg/kg/injection, schedule: Q04DX002 (ip), vehicle: Klucel (hydroxypropylcellulose) (HPC) 98 % of control | dose: 200.0 mg/kg/injection, schedule: Q04DX002 (ip), vehicle: Klucel (hydroxypropylcellulose) (HPC) 98 % of control | dose: 400.0 mg/kg/injection, schedule: Q04DX002 (ip), vehicle: Klucel (hydroxypropylcellulose) (HPC) 86 % of control

O/N=C\c1ccccc1Cl
inactive: [9] 100 % of control | [10] 100 % of control | dose: 200.0 mg/kg/injection, schedule: Q01DX009 (ip), vehicle: saline with Tween-80 105 % of control | [11] 100 % of control | [12] 96 % of control

CCC1(c2ccccc2)C(=O)N(CBr)C(=O)N(CBr)C1=O
inactive: [9] 90 % of control | [1] 92 % of control | [2] 100 % of control
